Assay results: ChEMBL document CHEMBL4616583 (J Med Chem, 2019)
Converted amounts (≈) assume the structure as drawn. The source made the active and inactive calls. No cut-off for these calls is given here.

What was measured:
in vivo [1] = settings: rat, urine, po, 10 mg/kg
in vitro [2] = settings: human, microsomes
in vivo [3] = settings: mouse, plasma
in vivo [4] = settings: mouse, plasma; remark: listed apart in the source
in vitro [5] = settings: human, microsomes; remark: listed apart in the source
Mus musculus [6] = organism: Mus musculus; experiment: animal or person; settings: NZB/WF1, po, 504 h, read-out: INH
in vivo [7] = settings: rat, po, 5 mg/kg
physchem [8] = settings: fasted state simulated intestinal fluid (FaSSIF)
[9] = molecular target: Tyrosine-protein kinase BTK (Mus musculus) (UniProt P35991); settings: NZB/WF1, 0.5 mg/kg
Sequence of Tyrosine-protein kinase BTK (Mus musculus) (P35991 whole entry): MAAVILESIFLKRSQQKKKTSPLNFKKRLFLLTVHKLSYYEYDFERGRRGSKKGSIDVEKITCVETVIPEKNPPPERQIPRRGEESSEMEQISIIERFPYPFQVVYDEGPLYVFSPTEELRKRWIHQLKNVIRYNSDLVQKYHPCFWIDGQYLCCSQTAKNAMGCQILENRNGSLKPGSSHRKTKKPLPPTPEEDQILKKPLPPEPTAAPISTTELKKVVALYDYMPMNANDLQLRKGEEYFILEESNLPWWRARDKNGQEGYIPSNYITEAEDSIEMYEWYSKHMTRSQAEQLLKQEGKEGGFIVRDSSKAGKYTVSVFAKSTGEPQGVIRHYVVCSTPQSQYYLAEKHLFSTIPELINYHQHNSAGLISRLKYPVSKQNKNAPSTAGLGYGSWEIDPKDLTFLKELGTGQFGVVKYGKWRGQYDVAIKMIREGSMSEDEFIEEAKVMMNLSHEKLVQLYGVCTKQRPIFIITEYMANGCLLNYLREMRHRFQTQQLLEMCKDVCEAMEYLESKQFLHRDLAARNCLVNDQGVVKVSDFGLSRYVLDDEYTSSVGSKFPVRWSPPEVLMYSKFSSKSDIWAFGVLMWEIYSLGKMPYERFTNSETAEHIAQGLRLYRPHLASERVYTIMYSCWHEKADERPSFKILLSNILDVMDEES

physchem [10] = settings: buffer, pH 1
in vitro [11] = settings: dog, plasma
in vivo [12] = settings: dog, po, 2 mg/kg
in vivo [13] = settings: rat, iv, 5 mg/kg
Cynomolgus monkey [14] = experiment: animal or person; settings: Macaca fascicularis, po, 4 h, read-out: INH
in vivo [15] = settings: dog, iv, 1 mg/kg
in vivo [16] = settings: rhesus monkey, po, 2 mg/kg
in vitro [17] = settings: PAMPA, pH 7.4
in vitro [18] = settings: rhesus monkey, plasma
Mus musculus [19] = organism: Mus musculus; experiment: animal or person; settings: NZB/WF1, po, 504 h, read-out: INH; remark: listed apart in the source
in vivo [20] = settings: mouse, iv, 2 mg/kg
in vitro [21] = settings: mouse, plasma
Mus musculus [22] = organism: Mus musculus; experiment: animal or person; settings: NZB/WF1, po, 504 h, read-out: INH; remark: listed apart in the source
[23] = molecular target: Tyrosine-protein kinase BTK (Mus musculus) (UniProt P35991); settings: DBA1/J, 0.5 mg/kg
[24] = molecular target: Tyrosine-protein kinase BTK (Mus musculus) (UniProt P35991); settings: DBA1/J, 0.1 mg/kg
in vivo [25] = settings: mouse, po, 4 mg/kg
in vivo [26] = settings: mouse, iv, 2 mg/kg; remark: listed apart in the source
Homo sapiens [27] = organism: Homo sapiens; settings: 10 uM
in vivo [28] = settings: mouse, po, 4 mg/kg; remark: listed apart in the source
[29] = molecular target: Tyrosine-protein kinase BTK (Mus musculus) (UniProt P35991); settings: 0.5 mg/kg
in vivo [30] = settings: dog, po, 2 mg/kg; remark: listed apart in the source
in vivo [31] = settings: rat, iv, 5 mg/kg; remark: listed apart in the source
B cell = experiment: cells; settings: Homo sapiens
[32] = molecular target: Tyrosine-protein kinase BTK (Mus musculus) (UniProt P35991); settings: NZB/WF1, 0.2 mg/kg
in vitro [33] = settings: rat, plasma
in vivo [34] = settings: dog, iv, 1 mg/kg; remark: listed apart in the source
[35] = molecular target: Tyrosine-protein kinase BTK (Mus musculus) (UniProt P35991); settings: 0.5 to 2.5 mg/kg
in vivo [36] = settings: rhesus monkey, iv, 1 mg/kg
in vivo [37] = settings: rat, iv, 5 mg/kg; remark: listed apart in the source
physchem [38] = settings: buffer, pH 7
Mus musculus [39] = organism: Mus musculus; experiment: animal or person; settings: DBA1/J, po, 912 h, read-out: INH
in vivo [40] = settings: rat, iv, 5 mg/kg; remark: listed apart in the source
[41] = molecular target: Tyrosine-protein kinase BTK (Mus musculus) (UniProt P35991); settings: DBA1/J, 2.5 mg/kg
in vitro [42] = settings: human, plasma
in vivo [43] = settings: rhesus monkey, po, 2 mg/kg; remark: listed apart in the source
in vivo [44] = settings: mouse, iv, 2 mg/kg; remark: listed apart in the source
in vitro [45] = settings: PAMPA, pH 5.5
in vivo [46] = settings: rhesus monkey, po, 2 mg/kg; remark: listed apart in the source
in vivo [47] = settings: rat, po, 5 mg/kg; remark: listed apart in the source
in vivo [48] = settings: dog, iv, 1 mg/kg; remark: listed apart in the source
in vivo [49] = settings: dog, po, 2 mg/kg; remark: listed apart in the source
[50] = molecular target: Tyrosine-protein kinase BTK (Mus musculus) (UniProt P35991); settings: 0.5 mg/kg; remark: listed apart in the source
in vivo [51] = settings: dog, po, 2 mg/kg; remark: listed apart in the source
in vivo [52] = settings: mouse, po, 4 mg/kg; remark: listed apart in the source
in vitro [53] = settings: human, Caco-2
in vivo [54] = settings: rhesus monkey, iv, 1 mg/kg; remark: listed apart in the source
in vivo [55] = settings: rhesus monkey, po, 2 mg/kg; remark: listed apart in the source
in vivo [56] = settings: rhesus monkey, iv, 1 mg/kg; remark: listed apart in the source
Mus musculus [57] = organism: Mus musculus; settings: DBA1/J, 0.1 to 2.5 mg/kg
in vivo [58] = settings: mouse, iv, 2 mg/kg; remark: listed apart in the source
in vivo [59] = settings: rat, po, 5 mg/kg; remark: listed apart in the source
in vivo [60] = settings: rat, po, 5 mg/kg; remark: listed apart in the source
Cynomolgus monkey [61] = experiment: animal or person; settings: Macaca fascicularis, po, 72 h, read-out: INH
Homo sapiens [62] = organism: Homo sapiens; settings: 10 uM; remark: listed apart in the source
in vivo [63] = settings: rhesus monkey, iv, 1 mg/kg; remark: listed apart in the source
physchem [64] = settings: fed state simulated intestinal fluid (FeSSIF)
in vitro [65] = settings: human, Caco-2; remark: listed apart in the source
in vivo [66] = settings: mouse, po, 4 mg/kg; remark: listed apart in the source
in vivo [67] = settings: dog, iv, 1 mg/kg; remark: listed apart in the source

## CC#C[14C](=O)N[C@H]1CCCN(c2c(F)cc(C(N)=O)c3[nH]c(C)c(C)c23)C1
In vivo [1]
  dose excreted at 72 h: 0.7%

## C=CS(=O)(=O)N[C@@H]1CCCN(c2ccc(C(N)=O)c3[nH]c(C)c(C)c23)C1
In vitro [2]
  remaining at 10 min: 84%

## CC#CC(=O)N[C@H]1CCCN(c2ccc(C(N)=O)c3[nH]c(C)c(C)c23)C1
In vivo [3]
  Cmax: 0.49 µM
In vivo [4]
  AUC: 1.1 µM·h

## C=CS(=O)(=O)N[C@H]1CCCN(c2ccc(C(N)=O)c3[nH]c(C)c(C)c23)C1
In vivo [3]
  Cmax: 0.127 µM
In vitro [2]
  remaining at 10 min: 90%
In vitro [5]
  half-life: 0.833 h

## CC#CC(=O)N[C@H]1CCCN(c2c(F)cc(C(N)=O)c3[nH]c(C)c(C)c23)C1 [BRANEBRUTINIB]
Mus musculus [6]
  inhibition in vivo at […]: 61%
In vivo [7]
  Cmax: 9.6 µM
Physchem [8]
  solubility: 9 µg/mL (≈ 24.3 µM)
[9]
  inhibition: 99%
In vivo [3]
  Cmax: 42 µM
Physchem [10]
  solubility: 2 to 3 µg/mL (≈ 5.4 to 8.1 µM)
In vitro [11]
  fraction unbound: 0.002
In vivo [12]
  Tmax: 0.67 h
In vivo [13]
  MRT: 0.8 h
Cynomolgus monkey [14]
  inhibition in vivo at 0.5 mg/kg: 100%
In vivo [15]
  MRT: 4.1 h
In vivo [16]
  AUC: 4.9 µM·h
In vitro [17]
  Papp: 97.8 ×10⁻⁶ cm/s
In vitro [18]
  fraction unbound: 0.004
Mus musculus [19]
  inhibition in vivo at 0.5 mg/kg: 51%
In vivo [20]
  Vd: 0.48 L/kg
In vitro [21]
  fraction unbound: 0.004
Mus musculus [22]
  inhibition in vivo at 0.2 mg/kg: 40%
[23]
  inhibition: 97%
[24]
  inhibition: 64%
In vivo [25]
  bioavailability: 106%
In vivo [4]
  AUC: 52 µM·h
In vivo [26]
  half-life: 0.46 h
Homo sapiens [27]
  inhibition: 23%
In vivo [28]
  Tmax: 1 h
[29]
  inhibition: 86%
In vivo [30]
  AUC: 78 µM·h
In vivo [31]
  Vd: 0.4 L/kg
B cell
  IC50: 0.04 nM
[32]
  inhibition: 92%
In vitro [33]
  fraction unbound: 0.002
In vivo [34]
  Vd: 0.24 L/kg
[35]
  inhibition: 25%
In vivo [36]
  Vd: 0.45 L/kg
In vivo [37]
  half-life: 4.3 h
Physchem [38]
  logD: 3.18
Mus musculus [39]
  inhibition in vivo at 2.5 mg/kg: 92%
In vivo [40]
  clearance: 8.7 mL/min/kg
[41]
  inhibition: 99%
In vitro [42]
  fraction unbound: 0.012
In vivo [43]
  Tmax: 1 h
In vivo [44]
  MRT: 0.57 h
In vitro [45]
  Papp: 85.9 ×10⁻⁶ cm/s
In vivo [46]
  Cmax: 2.3 µM
In vivo [47]
  Tmax: 0.58 h
In vivo [48]
  half-life: 3 h
In vivo [49]
  bioavailability: 81%
[50]
  inhibition: 90%
In vivo [51]
  Cmax: 19 µM
In vivo [52]
  Cmax: 7.7 µM
In vitro [53]
  Papp A→B: 17.7 to 42.2 ×10⁻⁶ cm/s
In vivo [54]
  half-life: 3.2 h
In vivo [55]
  bioavailability: 46%
In vivo [56]
  clearance: 9.4 mL/min/kg
Mus musculus [57]
  inhibition: Active
In vivo [58]
  clearance: 14 mL/min/kg
In vivo [59]
  bioavailability: 74%
In vivo [60]
  AUC: 18 µM·h
Cynomolgus monkey [61]
  inhibition in vivo at 0.5 mg/kg: 74%
Homo sapiens [62]
  inhibition: 3.1%
In vivo [63]
  MRT: 1 h
Physchem [64]
  solubility: 145 µg/mL (≈ 391 µM)
In vitro [65]
  Papp B→A: 12.7 to 25 ×10⁻⁶ cm/s
In vivo [66]
  AUC: 14 µM·h
In vivo [67]
  clearance: 0.94 mL/min/kg
